Measurements from patent publication US20090017452A1, “METHODS AND COMPOSITIONS RELATING TO THE PHARMACOGENETICS OF DIFFERENT GENE VARIANTS” (UNIVERSITY OF CHICAGO, priority 2004, published 2009).
Positions count from the first letter of the chain named. Where two headings read alike, the source gives them in different places.

Experiments:
[1] = Irinotecan and metabolite AUC by ABCC2 3972C>T genotype in cancer patients
From the text: Sixty-four adults (48 Caucasians, 10 African-Americans, 4 Hispanics, and 2 others) with refractory solid tumors took part in the pharmacogenetic study.

OATP1B1 = target: T1, OATP1B1 (Homo sapiens, UniProt Q9Y6L6); conditions: cited from earlier work; for transport activity by OATP1B1: OATP1B1*1a and three common variants
T1 construct: expressed in transfected cells; host or cells: HEK293 cells (stably transfected); Xenopus oocytes
T1 sequence (Q9Y6L6 1-691): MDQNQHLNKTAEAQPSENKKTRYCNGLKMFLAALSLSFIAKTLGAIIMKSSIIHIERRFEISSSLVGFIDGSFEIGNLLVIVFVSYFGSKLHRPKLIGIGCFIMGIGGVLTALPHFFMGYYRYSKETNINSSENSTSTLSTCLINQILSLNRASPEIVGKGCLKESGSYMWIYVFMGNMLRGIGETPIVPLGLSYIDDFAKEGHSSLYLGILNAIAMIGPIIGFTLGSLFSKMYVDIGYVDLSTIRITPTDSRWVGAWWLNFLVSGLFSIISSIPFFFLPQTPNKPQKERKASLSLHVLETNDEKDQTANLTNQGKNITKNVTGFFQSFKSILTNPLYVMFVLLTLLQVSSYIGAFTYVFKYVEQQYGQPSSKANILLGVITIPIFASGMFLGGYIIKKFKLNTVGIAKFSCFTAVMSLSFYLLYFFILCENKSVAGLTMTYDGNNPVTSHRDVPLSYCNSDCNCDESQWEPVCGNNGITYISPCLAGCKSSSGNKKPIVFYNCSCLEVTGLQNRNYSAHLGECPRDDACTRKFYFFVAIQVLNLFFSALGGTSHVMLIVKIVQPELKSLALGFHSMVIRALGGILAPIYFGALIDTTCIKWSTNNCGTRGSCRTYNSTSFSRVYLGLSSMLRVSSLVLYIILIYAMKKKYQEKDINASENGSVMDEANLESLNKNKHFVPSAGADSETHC

[2] = CPT-11 pharmacokinetics by SLCO1B1*5 genotype in patients; conditions: human, in vivo, intravenous
From the text: Six SNPs in ABCC2 were genotyped [−1549G>A, −1019A>G, −24C>T, 1249G>A, intron 27 −34C>T, 3972C>T] and haplotypes were estimated. Two SNPs in SLCO1B1 [*1b (388A>G) and *5 (521T>C)] were also genotyped.

[3] = cited from earlier work
[4] = target: T2, SLCO1B1*15 (N130D and V174A) (Homo sapiens, UniProt Q9Y6L6, N130D/V174A); conditions: Xenopus oocytes, among the variants examined; cited from earlier work
T2 sequence (Q9Y6L6 1-691 N130D/V174A): T1 sequence (Q9Y6L6 1-691) with N130D, V174A

[5] = after intra peritoneal administration of irinotecan; cited from earlier work
[6] = cited from earlier work; remark: listed apart in the source

## CCc1c2c(nc3ccc(OC(=O)N4CCC(NCCCCC(=O)O)CC4)cc13)-c1cc3c(c(=O)n1C2)COC(=O)[C@]3(O)CC [APC]
[1]; 350 mg/m^2 IV irinotecan
  AUC ratio APC/irinotecan in TT patients compared to CT and CC patients: Higher values of AUC ratios

## CCc1c2c(nc3ccc(OC(=O)N4CCC(N5CCCCC5)CC4)cc13)-c1cc3c(c(=O)n1C2)COC(=O)[C@]3(O)CC [irinotecan]
OATP1B1
  transport activity by OATP1B1: not transported
[2]; 350 mg/m^2, patients with SLCO1B1*5 CT+CC genotype
  AUC: 29500 ± 8800 ng·h/mL
[2]; 350 mg/m^2, patients with SLCO1B1*5 TT genotype
  AUC: 22300 ± 5100 ng·h/mL
[3]; both weekly and three-weekly regimens
  patients experiencing grade 3-4 neutropenia: 30-40%
[3]; early single agent trials, dose limiting
  patients with grade 3-4 diarrhea: about one third
[3]; three-weekly regimen
  frequency of grade 3-4 diarrhea: 19%
[3]; three-weekly single agent regimen
  mortality rate: 1.6%
[3]; weekly schedule
  frequency of grade 3-4 diarrhea: 36%
[3]; weekly single agent regimen
  mortality rate: 5.3%
[1]; 350 mg/m^2 IV dose of irinotecan, 64 patients
  AUC in ABCC2 3972 TT patients compared to CT and CC patients: higher AUC values

## CCc1c2c(nc3ccc(O)cc13)-c1cc3c(c(=O)n1C2)COC(=O)[C@]3(O)CC [SN-38, 7-ethyl-10-hydroxycamptothecin]
OATP1B1
  transport activity by OATP1B1: transport activity for SN-38 was observed
  effect on SLCO1B1-mediated uptake of [(3)H]estrone-3-sulfate: significant inhibitory effect
[4]
  transport activity of variant SLCO1B1*15: decreased transport activities
[5]
  tissue accumulation of SN-38: accumulate in the intestine
[1]; 350 mg/m^2 IV irinotecan, patients with 6/6 and 6/7 UGT1A1 genotype (n=54)
  AUC versus ABCC2 3972C>T genotype (TT compared to CT and CC): No significant correlation

## C[C@]12CC[C@@H]3c4ccc(OS(=O)(=O)O)cc4CC[C@H]3[C@@H]1CCC2=O [estrone-3-sulfate]
[4]
  transport activity of variant SLCO1B1*15: decreased transport activities

## CCc1c2c(nc3ccc(O[C@@H]4O[C@H](C(=O)O)[C@@H](O)[C@H](O)[C@H]4O)cc13)-c1cc3c(c(=O)n1C2)COC(=O)[C@]3(O)CC [SN-38G, 10O-glucuronyl-SN-38]
OATP1B1
  transport activity by OATP1B1: not transported

## CC[C@H](C)C(=O)O[C@H]1C[C@H](O)C=C2C=C[C@H](C)[C@H](CC[C@@H](O)C[C@@H](O)CC(=O)O)[C@H]21 [pravastatin]
[6]; heterozygous carriers of *15B (388A>G and 521T>C)
  mean pravastatin AUC0-12 higher compared to non-carriers: 93%
[6]; heterozygous carriers of *17 (-11187G>A, 388A>G and 521T>C)
  mean pravastatin AUC0-12 higher compared to non-carriers: 130%
[6]; subjects with 521TC genotype
  mean pravastatin AUC0-12 higher compared to reference genotype: 106%
[6]; subjects with -11187GA genotype
  mean pravastatin AUC0-12 higher compared to reference genotype: 98%
[4]
  transport activity of variant SLCO1B1*15: decreased transport activities
